Target: BCL6 (Homo sapiens (Human), UniProt P41182)
Experiment: Immunofluorescence high content imaging of BCL6 degradation in T47D cells
Format: cell-based
Details: not given
In short: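 BCL6 loss was quantified by high-content imaging (10×, 4 fields/well) after PFA fixation and anti-BCL6/Alexa-488 staining with Hoechst nuclear and CellMask counterstains. Compounds were applied for 3 days to T47D breast cancer cells in RPMI-10% FBS, 11 points, 3-fold steps, top 0.1 or 1 μM.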

| IC50 [nM] | SMILES |
| --- | --- |
| ≥ 100 | Cn1c(=O)c(N2CCC2=O)cc2cc(Nc3nc(N4CCN(CC5CCN(c6ccc7c(c6)C(=O)N(C6CCC(=O)NC6=O)C7=O)CC5)CC4)ncc3Cl)ccc21 (stereo not drawn) [compound 249, 5-(4-((4-(5-chloro-4-((1-methyl-2-oxo-3-(2-oxoazetidin-1-yl)-1,2-dihydroquinolin-6-yl)amino)pyrimidin-2-yl)piperazin-1-yl)methyl)piperidin-1-yl)-2-(2,6-dioxopiperidin-3-yl)isoindoline-1,3-dione] |
| 10 to 50 | CNC(=O)COc1cc2cc(Nc3nc(N4CCN(C(C)(C)C5CCN(c6cccc(C(=O)NC7CCC(=O)NC7=O)c6F)CC5)CC4)ncc3Cl)ccc2n(C)c1=O (stereo not drawn) [compound 291, 3-[4-(2-{4-[5-chloro-4-({1-methyl-3-[(methylcarbamoyl)methoxy]-2-oxo-1,2-dihydroquinolin-6-yl}amino)pyrimidin-2-yl]piperazin-1-yl}propan-2-yl)piperidin-1-yl]-N-(2,6-dioxopiperidin-3-yl)-2-fluorobenzamide] |
| < 10 | CNC(=O)COc1cc2cc(Nc3nc(N4CCN(C(C)(C)C5CCN(c6cccc7c6C(=O)N(C6CCC(=O)NC6=O)C7=O)CC5)CC4)ncc3Cl)ccc2n(C(C)C)c1=O (stereo not drawn) [compound 307, 2-{[6-({5-chloro-2-[4-(2-{1-[2-(2,6-dioxopiperidin-3-yl)-1,3-dioxo-2,3-dihydro-1H-isoindol-4-yl]piperidin-4-yl}propan-2-yl)piperazin-1-yl]pyrimidin-4-yl}amino)-2-oxo-1-(propan-2-yl)-1,2-dihydroquinolin-3-yl]oxy}-N-methylacetamide] |

Same assay, conditions: T47D

| Dmax [%] | SMILES |
| --- | --- |
| ≥ 70 | CNC(=O)COc1cc2cc(Nc3nc(N4CCN(C(C)(C)C5CCN(c6ccc(OC)c(C(=O)NC7CCC(=O)NC7=O)c6F)CC5)CC4)ncc3Cl)ccc2n(C)c1=O (stereo not drawn) [compound 468, 3-[4-(2-{4-[5-chloro-4-({1-methyl-3-[(methylcarbamoyl)methoxy]-2-oxo-1,2-dihydroquinolin-6-yl}amino)pyrimidin-2-yl]piperazin-1-yl}propan-2-yl)piperidin-1-yl]-N-(2,6-dioxopiperidin-3-yl)-2-fluoro-6-methoxybenzamide] |
| ≥ 70 | CNC(=O)COc1cc2cc(Nc3nc(N4CCN(C(C)(C)C5CCN(c6cccc(C(=O)NC7CCC(=O)NC7=O)c6F)CC5)CC4)ncc3Cl)ccc2n(C)c1=O (stereo not drawn) [compound 291, 3-[4-(2-{4-[5-chloro-4-({1-methyl-3-[(methylcarbamoyl)methoxy]-2-oxo-1,2-dihydroquinolin-6-yl}amino)pyrimidin-2-yl]piperazin-1-yl}propan-2-yl)piperidin-1-yl]-N-(2,6-dioxopiperidin-3-yl)-2-fluorobenzamide] |
| 50 to 70 | CNC(=O)COc1cc2cc(Nc3nc(N4CCN(C(C)(C)C5CCN(c6cccc7c6C(=O)N(C6CCC(=O)NC6=O)C7=O)CC5)CC4)ncc3Cl)ccc2n(C(C)C)c1=O (stereo not drawn) [compound 307, 2-{[6-({5-chloro-2-[4-(2-{1-[2-(2,6-dioxopiperidin-3-yl)-1,3-dioxo-2,3-dihydro-1H-isoindol-4-yl]piperidin-4-yl}propan-2-yl)piperazin-1-yl]pyrimidin-4-yl}amino)-2-oxo-1-(propan-2-yl)-1,2-dihydroquinolin-3-yl]oxy}-N-methylacetamide] |

Same assay, conditions: T47D cells

| Dmax [%] | IC50 [nM] | SMILES |
| --- | --- | --- |
| 50 to 70 | < 10 | CCCCn1c(=O)c(OCC(=O)NC)cc2cc(Nc3nc(N4CCN(CC5CCN(c6ccc7c(c6)C(=O)N(C6CCC(=O)NC6=O)C7=O)CC5)CC4)ncc3Cl)ccc21 (stereo not drawn) [compound 317, 2-{[1-butyl-6-({5-chloro-2-[4-({1-[2-(2,6-dioxopiperidin-3-yl)-1,3-dioxo-2,3-dihydro-1H-isoindol-5-yl]piperidin-4-yl}methyl)piperazin-1-yl]pyrimidin-4-yl}amino)-2-oxo-1,2-dihydroquinolin-3-yl]oxy}-N-methylacetamide] |
| 50 to 70 | < 10 | CNC(=O)COc1cc2cc(Nc3nc(N4CCN(CC5CCN(c6ccc7c(c6)C(=O)N(C6CCC(=O)NC6=O)C7=O)CC5)CC4)ncc3Cl)ccc2n(CCC2CC2)c1=O (stereo not drawn) [compound 333, 2-{[6-({5-chloro-2-[4-({1-[2-(2,6-dioxopiperidin-3-yl)-1,3-dioxo-2,3-dihydro-1H-isoindol-5-yl]piperidin-4-yl}methyl)piperazin-1-yl]pyrimidin-4-yl}amino)-1-(2-cyclopropylethyl)-2-oxo-1,2-dihydroquinolin-3-yl]oxy}-N-methylacetamide] |
| ≥ 70 | < 10 | CNC(=O)COc1cc2cc(Nc3nc(N4CCC(OC5CCC6(CC5)CN(c5ccc7c(c5)C(=O)N(C5CCC(=O)NC5=O)C7=O)C6)CC4)ncc3Cl)ccc2n(C(C)C)c1=O (stereo not drawn) [compound 421, 2-{[6-({5-chloro-2-[4-({2-[2-(2,6-dioxopiperidin-3-yl)-1,3-dioxo-2,3-dihydro-1H-isoindol-5-yl]-2-azaspiro[3.5]nonan-7-yl}oxy)piperidin-1-yl]pyrimidin-4-yl}amino)-2-oxo-1-(propan-2-yl)-1,2-dihydroquinolin-3-yl]oxy}-N-methylacetamide] |
| 50 to 70 | < 10 | CCn1c(=O)c(OCC(=O)NC)cc2cc(Nc3nc(N4CCC(OC5CN(C6CN(c7ccc8c(c7)C(=O)N(C7CCC(=O)NC7=O)C8=O)C6)C5)CC4)ncc3Cl)ccc21 (stereo not drawn) [compound 328, 2-{[6-({5-chloro-2-[4-({1′-[2-(2,6-dioxopiperidin-3-yl)-1,3-dioxo-2,3-dihydro-1H-isoindol-5-yl]-[1,3′-biazetidin]-3-yl}oxy)piperidin-1-yl]pyrimidin-4-yl}amino)-1-ethyl-2-oxo-1,2-dihydroquinolin-3-yl]oxy}-N-methylacetamide] |

The remaining lines, values behind:

| SMILES | Dmax [%] | IC50 [nM] |
| --- | --- | --- |
| CNC(=O)COc1cc2cc(Nc3nc(N4CCO[C@H](COc5ccc(C(=O)NC6CCC(=O)NC6=O)c(OC)c5)C4)ncc3Cl)ccc2n(C(C)C)c1=O (stereo partly drawn) [compound 351, 4-{[(2S)-4-[5-chloro-4-({3-[(methylcarbamoyl)methoxy]-2-oxo-1-(propan-2-yl)-1,2-dihydroquinolin-6-yl}amino)pyrimidin-2-yl]morpholin-2-yl]methoxy}-N-(2,6-dioxopiperidin-3-yl)-2-methoxybenzamide] | < 50 | 10 to 50 |
| CNC(=O)COc1cc2cc(Nc3nc(N4CCN(C(C)(C)C5CCN(c6cccc(C(=O)NC7CCC(=O)NC7=O)[n+]6[O-])CC5)CC4)ncc3Cl)ccc2n(C)c1=O (stereo not drawn) [compound 396, 2-[4-(2-{4-[5-chloro-4-({1-methyl-3-[(methylcarbamoyl)methoxy]-2-oxo-1,2-dihydroquinolin-6-yl}amino)pyrimidin-2-yl]piperazin-1-yl}propan-2-yl)piperidin-1-yl]-6-[(2,6-dioxopiperidin-3-yl)carbamoyl]pyridin-1-ium-1-olate] | < 50 | 10 to 50 |
| CNC(=O)COc1cc2cc(Nc3nc(N4CCC(F)(CN5CCN(c6ccc(C(=O)NC7CCC(=O)NC7=O)c(OC)c6)CC5)CC4)ncc3Cl)ccc2n(C)c1=O (stereo not drawn) [compound 366, 4-[4-({1-[5-chloro-4-({1-methyl-3-[(methylcarbamoyl)methoxy]-2-oxo-1,2-dihydroquinolin-6-yl}amino)pyrimidin-2-yl]-4-fluoropiperidin-4-yl}methyl)piperazin-1-yl]-N-(2,6-dioxopiperidin-3-yl)-2-methoxybenzamide] | 50 to 70 | < 10 |

Same assay, conditions: class symbols A-D, read-out: EC50 (nM)*

| DC50 [nM] | SMILES |
| --- | --- |
| 50 to 100 | CNC(=O)COc1cc2cc(Nc3nc(N4CCC(OCCOCCNc5cccc6c5C(=O)N(C5CCC(=O)NC5=O)C6=O)CC4)ncc3Cl)ccc2n(C)c1=O (stereo not drawn) [compound 75, 2-((6-((5-chloro-2-(4-(2-(2-((2-(2,6-dioxopiperidin-3-yl)-1,3-dioxoisoindolin-4-yl)amino)ethoxy)ethoxy)piperidin-1-yl)pyrimidin-4-yl)amino)-1-methyl-2-oxo-1,2-dihydroquinolin-3-yl)oxy)-N-methylacetamide] |
| 10 to 50 | CNC(=O)COc1cc2cc(Nc3nc(N4CCC(c5cn(CCOc6ccc7c(c6)C(=O)N(C6CCC(=O)NC6=O)C7=O)nn5)CC4)ncc3Cl)ccc2n(C)c1=O (stereo not drawn) [compound 106, 2-((6-((5-chloro-2-(4-(1-(2-((2-(2,6-dioxopiperidin-3-yl)-1,3-dioxoisoindolin-5-yl)oxy)ethyl)-1H-1,2,3-triazol-4-yl)piperidin-1-yl)pyrimidin-4-yl)amino)-1-methyl-2-oxo-1,2-dihydroquinolin-3-yl)oxy)-N-methylacetamide] |

The remaining lines, values behind:

| SMILES | DC50 [nM] |
| --- | --- |
| O=C1CCC(N2C(=O)c3ccc(OCCOCCN4CCC(Oc5cc(Nc6ccc7c(c6)CCC(=O)N7)c(Cl)cc5[N+](=O)[O-])CC4)cc3C2=O)C(=O)N1 (stereo not drawn) [compound 74, 5-(2-(2-(4-(4-chloro-2-nitro-5-((2-oxo-1,2,3,4-tetrahydroquinolin-6-yl)amino)phenoxy)piperidin-1-yl)ethoxy)ethoxy)-2-(2,6-dioxopiperidin-3-yl)isoindoline-1,3-dione] | > 100 |
| CNC(=O)COc1cc2cc(Nc3nc(N4CCC(c5cn(CCOCC(=O)N[C@H](C(=O)N6C[C@H](O)C[C@H]6C(=O)N[C@@H](C)c6ccc(-c7scnc7C)cc6)C(C)(C)C)nn5)CC4)ncc3Cl)ccc2n(C)c1=O [compound 114, (2S,4R)-1-((S)-2-(2-(2-(4-(1-(5-chloro-4-((1-methyl-3-(2-(methylamino)-2-oxoethoxy)-2-oxo-1,2-dihydroquinolin-6-yl)amino)pyrimidin-2-yl)piperidin-4-yl)-1H-1,2,3-triazol-1-yl)ethoxy)acetamido)-3,3-dimethylbutanoyl)-4-hydroxy-N-((S)-1-(4-(4-methylthiazol-5-yl)phenyl)ethyl)pyrrolidine-2-carboxamide] | 50 to 100 |
| CNC(=O)COc1cc2cc(Nc3nc(N4CCC(Cc5cn(CCOCCOCCOCCOCCOc6ccc7c(c6)C(=O)N(C6CCC(=O)NC6=O)C7=O)nn5)CC4)ncc3Cl)ccc2n(C)c1=O (stereo not drawn) [compound 132, 2-((6-((5-chloro-2-(4-((1-(14-((2-(2,6-dioxopiperidin-3-yl)-1,3-dioxoisoindolin-5-yl)oxy)-3,6,9,12-tetraoxatetradecyl)-1H-1,2,3-triazol-4-yl)methyl)piperidin-1-yl)pyrimidin-4-yl)amino)-1-methyl-2-oxo-1,2-dihydroquinolin-3-yl)oxy)-N-methylacetamide] | > 100 |
| CNC(=O)COc1cc2cc(Nc3nc(N4CCC(OCCOCCOCCOCCOc5cc(-c6scnc6C)ccc5CNC(=O)[C@@H]5C[C@@H](O)CN5C(=O)C(c5cc(C)no5)C(C)C)CC4)ncc3Cl)ccc2n(C)c1=O (stereo partly drawn) [compound 54, (2S,4R)-N-(2-(2-(2-(2-(2-((1-(5-chloro-4-((1-methyl-3-(2-(methylamino)-2-oxoethoxy)-2-oxo-1,2-dihydroquinolin-6-yl)amino)pyrimidin-2-yl)piperidin-4-yl)oxy)ethoxy)ethoxy)ethoxy)ethoxy)-4-(4-methylthiazol-5-yl)benzyl)-4-hydroxy-1-(3-methyl-2-(3-methylisoxazol-5-yl)butanoyl)pyrrolidine-2-carboxamide] | > 100 |
| CNC(=O)COc1cc2cc(Nc3nc(N4CCC(OCc5cccc(COCCOCCOCCOc6ccc7c(c6)CN(C6CCC(=O)NC6=O)C7=O)c5)CC4)ncc3Cl)ccc2n(C)c1=O (stereo not drawn) [compound 97, 2-((6-((5-chloro-2-(4-((3-((2-(2-(2-((2-(2,6-dioxopiperidin-3-yl)-1-oxoisoindolin-5-yl)oxy)ethoxy)ethoxy)ethoxy)methyl)benzyl)oxy)piperidin-1-yl)pyrimidin-4-yl)amino)-1-methyl-2-oxo-1,2-dihydroquinolin-3-yl)oxy)-N-methylacetamide] | 50 to 100 |
